Data on 48 molecules can be found in ChEMBL document CHEMBL2390888, “Identification and synthesis of N-(thiophen-2-yl) benzamide derivatives as BRAF(V600E) inhibitors” (Bioorg Med Chem Lett, 2013).

pIC50: −log10 of the molar value. Active and inactive are the calls of the source. No cut-off for these calls is given here.

Serine/threonine-protein kinase B-raf, sequence (P15056 2-766 V600E limits assumed): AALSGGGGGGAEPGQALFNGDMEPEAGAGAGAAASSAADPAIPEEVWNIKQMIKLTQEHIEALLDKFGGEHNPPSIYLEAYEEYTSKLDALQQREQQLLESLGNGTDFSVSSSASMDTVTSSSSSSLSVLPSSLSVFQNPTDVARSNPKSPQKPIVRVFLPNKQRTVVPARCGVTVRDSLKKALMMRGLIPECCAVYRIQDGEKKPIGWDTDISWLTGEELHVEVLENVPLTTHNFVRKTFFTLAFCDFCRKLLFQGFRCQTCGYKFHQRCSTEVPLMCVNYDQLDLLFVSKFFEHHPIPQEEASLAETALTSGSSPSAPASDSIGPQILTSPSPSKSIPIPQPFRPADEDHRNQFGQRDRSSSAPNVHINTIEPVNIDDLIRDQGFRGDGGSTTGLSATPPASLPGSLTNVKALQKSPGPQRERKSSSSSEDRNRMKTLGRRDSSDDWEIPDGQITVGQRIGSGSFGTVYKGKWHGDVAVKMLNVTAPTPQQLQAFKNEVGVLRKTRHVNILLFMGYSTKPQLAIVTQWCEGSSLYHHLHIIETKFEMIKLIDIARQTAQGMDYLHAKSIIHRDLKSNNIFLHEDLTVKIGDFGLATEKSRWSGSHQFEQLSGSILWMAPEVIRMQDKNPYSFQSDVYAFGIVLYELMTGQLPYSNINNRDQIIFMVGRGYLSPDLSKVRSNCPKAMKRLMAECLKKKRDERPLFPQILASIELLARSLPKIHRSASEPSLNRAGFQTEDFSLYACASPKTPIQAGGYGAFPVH

The first experiment has as its target Serine/threonine-protein kinase B-raf (Homo sapiens, UniProt P15056, V600E). The experiment in a line: Inhibition of BRAF V600E mutant (unknown origin) assessed as inhibition of MEK phosphorylation by ELISA. In general terms: An ELISA detects its analyte on a solid surface through an enzyme-linked reagent.
Take `CCOC(=O)c1sc(NC(=O)c2ccccc2C)c(C#N)c1C`: the pIC50 is 5.70.

`O=C1NC(=S)NC(=O)C1=Cc1ccc(-c2ccc(Br)cc2)o1`: the pIC50 is 6.33.

Turning to `CCOC(=O)c1sc(NC(=O)c2ccc(OCC)cc2)c(C#N)c1C`, the pIC50 was 5.94.

For the molecule `CCOC(=O)c1sc(NC(=O)c2ccc(F)cc2)c(C(=O)Nc2ccccc2)c1C`, the pIC50 is 6.20.

`CCOC(=O)c1sc(NC(=O)c2cc(OC)cc(OC)c2)c(C#N)c1C`: the pIC50 is 6.11.

On to `CCOC(=O)c1sc(NC(=O)c2ccc(Cl)c([N+](=O)[O-])c2)c(C#N)c1C`, for which the pIC50 was 5.67.

The test system of a further experiment is Serine/threonine-protein kinase B-raf (Homo sapiens), P15056 [V600E]. The experiment in a line: Inhibition of BRAF V600E mutant (unknown origin) assessed as inhibition of MEK phosphorylation at 2 uM by ELISA relative to control.
Serine/threonine-protein kinase B-raf (Homo sapiens), P15056 [V600E], sequence (P15056 whole entry V600E): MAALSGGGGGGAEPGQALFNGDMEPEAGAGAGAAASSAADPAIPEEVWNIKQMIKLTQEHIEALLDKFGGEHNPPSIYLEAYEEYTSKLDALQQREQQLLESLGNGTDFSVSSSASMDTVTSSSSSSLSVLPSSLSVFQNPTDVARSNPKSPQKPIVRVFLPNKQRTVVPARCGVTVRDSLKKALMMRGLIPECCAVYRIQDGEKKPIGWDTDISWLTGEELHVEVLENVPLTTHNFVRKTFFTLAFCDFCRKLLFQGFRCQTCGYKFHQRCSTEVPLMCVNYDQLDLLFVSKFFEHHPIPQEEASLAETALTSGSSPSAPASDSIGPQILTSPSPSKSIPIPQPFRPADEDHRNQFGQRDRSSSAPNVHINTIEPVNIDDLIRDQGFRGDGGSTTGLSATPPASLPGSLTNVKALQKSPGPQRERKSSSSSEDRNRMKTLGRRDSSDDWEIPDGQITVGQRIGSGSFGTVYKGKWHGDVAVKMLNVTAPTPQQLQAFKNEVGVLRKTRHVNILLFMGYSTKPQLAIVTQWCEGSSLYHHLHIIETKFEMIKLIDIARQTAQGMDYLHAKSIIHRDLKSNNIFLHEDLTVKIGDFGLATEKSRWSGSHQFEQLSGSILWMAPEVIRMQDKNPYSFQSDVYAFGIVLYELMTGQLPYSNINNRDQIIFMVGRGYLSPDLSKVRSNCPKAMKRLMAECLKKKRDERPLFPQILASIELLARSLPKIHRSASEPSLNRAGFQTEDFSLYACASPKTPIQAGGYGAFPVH
For the molecule `CCOC(=O)c1sc(NC(=O)c2ccc(OC)cc2)c(C#N)c1C`, the inhibition was determined as 15%.

As for `Cc1c(C(=O)OC(C)C)sc(NC(=O)c2ccc(F)cc2)c1C#N`, the inhibition entry is “inactive”.

`CCOC(=O)c1sc(NC(=O)c2ccccc2C)c(C#N)c1C`: the inhibition was found to be 52%.

For the molecule `CCOC(=O)c1sc(NC(=O)c2ccc(Cl)cc2)c(C(N)=O)c1C`, the inhibition was 26%.

Turning to `CCCOC(=O)c1c(NC(=O)c2ccccc2F)sc(C(=O)OCC)c1C`, the inhibition result is “inactive”.

As for `CCOC(=O)c1sc(NC(=O)c2ccc(C(C)(C)C)cc2)c(C#N)c1C`, the inhibition was 46%.

As for `CCOC(=O)c1sc(NC(=O)c2ccc(Cl)c(F)c2)c(C#N)c1C`, the inhibition was 59%.

For the molecule `CCOC(=O)c1sc(NC(=O)c2ccccc2)c(C(=O)OCC)c1C`, the inhibition entry was “inactive”.

On to `CCOC(=O)c1sc(NC(=O)c2cccc(Cl)c2)c(C#N)c1C`, for which the inhibition is 57%.

For `CCOC(=O)c1sc(NC(=O)c2ccc(C)c(OC)c2)c(C#N)c1C`, the inhibition entry was “inactive”.

Consider `CCOC(=O)c1sc(NC(=O)c2ccc(C)cc2)c(C#N)c1C`, for which the inhibition worked out at 48%.

As to `CCOC(=O)c1sc(NC(=O)c2ccccc2I)c(C(=O)OC)c1C`, the inhibition result was “inactive”.

Consider `CCOC(=O)c1sc(NC(=O)c2ccc(Br)cc2)c(C#N)c1C`, for which the inhibition entry is “inactive”.

Regarding `CCOC(=O)c1sc(NC(=O)c2ccc(Cl)cc2)c(C#N)c1C`, the inhibition came out at 60%.

Turning to `COC(=O)c1sc(NC(=O)c2cccc(C)c2)c(C#N)c1C`, the inhibition result was “inactive”.

For `CCOC(=O)c1sc(NC(=O)c2ccc(Cl)c(C(F)(F)F)c2)c(C#N)c1C`, the inhibition amounted to 60%.

On to `CCOC(=O)c1sc(NC(=O)c2ccc(OCC)cc2)c(C#N)c1C`, for which the inhibition stood at 69%.

As to `CCOC(=O)c1sc(NC(=O)c2ccc(OC)c(OC)c2)c(C#N)c1C`, the inhibition was determined as 32%.

Take `CCOC(=O)c1sc(NC(=O)c2cccc(OC)c2)c(C#N)c1C`: the inhibition amounted to 13%.

In the case of `CCOC(=O)c1sc(NC(=O)c2ccc(F)cc2)c(C(=O)Nc2ccccc2)c1C`, the inhibition stood at 87%.

Turning to `CCOC(=O)c1sc(NC(=O)c2cccc(C)c2)c(C#N)c1C`, the inhibition came out at 50%.

Consider `CCOc1ccc(C(=O)Nc2sc(C(=O)OC(C)C)c(C)c2C#N)cc1`, for which the inhibition result is “inactive”.

`CCOC(=O)c1sc(NC(=O)c2ccccc2OC)c(C#N)c1C`: the inhibition amounted to 42%.

As for `CCOC(=O)c1sc(NC(=O)c2cccc([N+](=O)[O-])c2)c(C#N)c1C`, the inhibition turned out to be 36%.

With `CCOC(=O)c1sc(NC(=O)c2cc(OC)cc(OC)c2)c(C#N)c1C`, the inhibition is 85%.

With `CCOC(=O)c1sc(NC(=O)c2ccccc2F)c(C(N)=O)c1C`, the inhibition entry is “inactive”.

Take `CCOC(=O)c1sc(NC(=O)c2ccccc2Cl)c(C#N)c1C`: the inhibition entry was “inactive”.

Regarding `CCOC(=O)c1sc(NC(=O)c2ccc(C(=O)OC)cc2)c(C#N)c1C`, the inhibition turned out to be 54%.

Consider `CCOC(=O)c1sc(NC(=O)c2ccco2)c(C#N)c1C`, for which the inhibition result is “inactive”.

As for `CCOC(=O)c1sc(NC(=O)c2cccc(C#N)c2)c(C#N)c1C`, the inhibition is 40%.

As to `CCOC(=O)c1sc(NC(=O)c2ccc(Cl)c(Cl)c2)c(C#N)c1C`, the inhibition was 36%.

As for `CCOC(=O)c1sc(NC(=O)c2ccc(N3CCN(C)CC3)cc2)c(C#N)c1C`, the inhibition entry was “inactive”.

In the case of `Cc1c(C(=O)OC(C)C)sc(NC(=O)c2ccc(Cl)c(Cl)c2)c1C#N`, the inhibition worked out at 42%.

Consider `CCOC(=O)c1sc(NC(=O)c2ccccc2F)c(C#N)c1C`, for which the inhibition was determined as 51%.

For `COC(=O)c1sc(NC(=O)c2ccccc2OC)c(C#N)c1C`, the inhibition entry is “inactive”.

Take `CCOC(=O)c1sc(NC(=O)c2ccc(Cl)c([N+](=O)[O-])c2)c(C#N)c1C`: the inhibition came to 51%.

On to `COC(=O)c1sc(NC(=O)c2cc(OC)cc(OC)c2)c(C#N)c1C`, for which the inhibition entry is “inactive”.

The test system is the same in another experiment. Description: Inhibition of BRAF V600E mutant (unknown origin) assessed as inhibition of MEK phosphorylation at 1 uM by ELISA relative to control.
As for `CCOC(=O)c1sc(NC(=O)c2ccc(NC(C)=O)cc2)c(C#N)c1C`, the inhibition entry was “inactive”.

Consider `CCOC(=O)c1sc(NC(=O)c2ccc(F)cc2)c(C(=O)Nc2ccccc2)c1C`, for which the inhibition worked out at 66%.

As to `CCOC(=O)c1sc(NC(=O)c2cccc(NC(C)=O)c2)c(C#N)c1C`, the inhibition came out at 17%.

For `CCOC(=O)c1sc(NC(=O)c2cccc(NS(C)(=O)=O)c2)c(C#N)c1C`, the inhibition entry is “inactive”.

In the case of `CCCS(=O)(=O)Nc1cc(F)c(C(=O)Nc2sc(C(=O)OCC)c(C)c2C#N)c(F)c1`, the inhibition worked out at 34%.

In the case of `CCOC(=O)c1sc(NC(=O)c2cc(OC)cc(OC)c2)c(C#N)c1C`, the inhibition is 60%.

Take `CCOC(=O)c1sc(NC(=O)c2cccnc2)c(C#N)c1C`: the inhibition was 20%.

Regarding `CCOC(=O)c1sc(NC(=O)c2ccccc2NS(C)(=O)=O)c(C#N)c1C`, the inhibition result is “inactive”.

`CCOC(=O)c1sc(NC(=O)c2ccc(NS(C)(=O)=O)cc2)c(C#N)c1C`: the inhibition entry is “inactive”.

Take `CCOC(=O)c1sc(NC(=O)c2ccncc2)c(C#N)c1C`: the inhibition was determined as 22%.

As to `CCOC(=O)c1sc(NC(=O)c2ccccn2)c(C#N)c1C`, the inhibition came to 39%.

As to `CCOC(=O)c1sc(NC(=O)c2ccc(Cl)nc2)c(C#N)c1C`, the inhibition was determined as 10%.

The term pIC50 denotes the negative decadic logarithm of the IC50, by convention in mol/L. The term inhibition denotes the share of the control response that was lost under treatment.
